# Data reported in ChEMBL document CHEMBL1135760, “Anilinoquinazoline inhibitors of fructose 1,6-bisphosphatase bind at a novel allosteric site: synthesis, in vitro characterization, and X-ray crystallography” (J Med Chem, 2002).
# Target: T1, Epidermal growth factor receptor (Homo sapiens, UniProt P00533)
# Assay: (§1) Inhibition of (EGFR) epidermal growth factor receptor tyrosine kinase
# Details: concentration not given here
# T1 sequence (P00533 whole entry): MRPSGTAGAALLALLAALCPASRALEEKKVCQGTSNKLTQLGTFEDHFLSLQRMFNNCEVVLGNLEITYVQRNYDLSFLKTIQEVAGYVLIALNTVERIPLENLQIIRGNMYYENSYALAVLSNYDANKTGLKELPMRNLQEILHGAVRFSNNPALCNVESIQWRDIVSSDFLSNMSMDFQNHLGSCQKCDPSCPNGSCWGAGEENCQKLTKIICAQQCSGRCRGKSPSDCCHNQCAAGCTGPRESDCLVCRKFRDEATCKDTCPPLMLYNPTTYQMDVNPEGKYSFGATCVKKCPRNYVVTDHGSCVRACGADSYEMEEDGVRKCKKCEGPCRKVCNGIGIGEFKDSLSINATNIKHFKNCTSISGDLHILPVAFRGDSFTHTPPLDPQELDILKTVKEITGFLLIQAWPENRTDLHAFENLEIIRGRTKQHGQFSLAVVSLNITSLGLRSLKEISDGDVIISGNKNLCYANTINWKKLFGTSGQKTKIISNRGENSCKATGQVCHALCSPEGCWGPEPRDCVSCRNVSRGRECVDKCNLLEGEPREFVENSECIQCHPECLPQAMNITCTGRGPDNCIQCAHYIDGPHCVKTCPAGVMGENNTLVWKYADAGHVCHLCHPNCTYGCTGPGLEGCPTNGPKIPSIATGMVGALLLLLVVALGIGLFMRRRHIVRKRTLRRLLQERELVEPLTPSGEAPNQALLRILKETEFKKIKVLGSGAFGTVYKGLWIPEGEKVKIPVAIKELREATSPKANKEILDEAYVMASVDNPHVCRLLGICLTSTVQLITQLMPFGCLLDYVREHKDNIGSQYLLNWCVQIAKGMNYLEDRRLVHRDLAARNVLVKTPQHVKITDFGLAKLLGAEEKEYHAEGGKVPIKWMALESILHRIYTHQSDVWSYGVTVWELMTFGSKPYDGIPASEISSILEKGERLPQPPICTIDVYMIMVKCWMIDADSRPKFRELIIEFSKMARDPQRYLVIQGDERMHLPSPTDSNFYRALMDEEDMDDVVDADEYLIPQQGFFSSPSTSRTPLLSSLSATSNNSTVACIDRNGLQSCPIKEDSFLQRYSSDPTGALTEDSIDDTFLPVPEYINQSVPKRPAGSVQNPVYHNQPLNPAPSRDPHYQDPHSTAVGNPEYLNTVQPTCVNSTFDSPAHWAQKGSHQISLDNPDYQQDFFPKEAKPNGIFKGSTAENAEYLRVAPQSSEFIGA
row,inhibition [%],SMILES
1,31,CCOc1cc2nc(CCCCl)nc(Nc3cccc(-c4csc(C)n4)c3)c2cc1OCC
2,11,CCOc1cc2nc(CCCl)nc(Nc3cccc(-c4csc(C)n4)c3)c2cc1OCC
3,10,CCOc1cc2nc(CCl)nc(Nc3cccc(-c4csc(C)n4)c3)c2cc1OCC

# Target: T1, Epidermal growth factor receptor
# Assay: as §1
# Details: not given
row,IC50 [nM],SMILES
1,11,CCOc1cc2ncnc(Nc3cccc(-c4cc[nH]n4)c3)c2cc1OCC
2,9000,CCOc1cc2nc(C)nc(Nc3cccc(-c4csc(C)n4)c3)c2cc1OCC
3,560,CCOc1cc2ncnc(Nc3cccc(-c4csc(N)n4)c3)c2cc1OCC
4,9300,CCOc1cc2nc(CC)nc(Nc3cccc(-c4csc(C)n4)c3)c2cc1OCC
5,4,C#Cc1cc(Nc2ncnc3cc(OC)c(OC)cc23)ccc1F
6,390,CCOc1cc2ncnc(Nc3cccc(-c4nc[nH]n4)c3)c2cc1OCC
7,> 10000,CCOc1cc2ncnc(Nc3cccc(-c4cnc(C)o4)c3)c2cc1OCC
8,1100,CCOc1cc2ncnc(Nc3cccc(-c4cncnc4)c3)c2cc1OCC

row,SMILES,IC50 [nM]
1,CCOc1cc2ncnc(Nc3cccc(-c4cscn4)c3)c2cc1OCC,18
2,CCOc1cc2ncnc(Nc3cccc(-c4ccco4)c3)c2cc1OCC,3
3,CCOc1cc2ncnc(Nc3cccc(-c4cncs4)c3)c2cc1OCC,11
4,CCOc1cc2ncnc(Nc3cccc(-c4nccs4)c3)c2cc1OCC,2
5,CCOc1cc2ncnc(Nc3cccc(-c4cocn4)c3)c2cc1OCC,720

# Target: not listed separately
# Assay: Inhibition of human recombinant wild type fructose-1,6-bisphosphatase (F16BP)
# Details: not given
row,IC50 [nM],SMILES
1,2400,CCOc1cc2nc(CN(C)C)nc(Nc3cccc(-c4csc(C(N)=O)n4)c3)c2cc1OCC
2,4100,CCOc1cc2nc(CCCCl)nc(Nc3cccc(-c4csc(C)n4)c3)c2cc1OCC
3,730,CCOc1cc2ncnc(Nc3cccc(-c4cc[nH]n4)c3)c2cc1OCC
4,> 10000,CCOc1cc2ncnc(Nc3cccc(-c4ccccc4)c3)c2cc1OCC
5,1400,CCOc1cc2nc(COC)nc(Nc3cccc(-c4csc(C)n4)c3)c2cc1OCC
6,> 10000,CCOc1cc2nc(CC(C)C)nc(Nc3cccc(Br)c3)c2cc1OCC
7,770,CCOc1cc2nc(Cn3ccnc3)nc(Nc3cccc(-c4csc(C)n4)c3)c2cc1OCC
8,> 10000,CCOc1cc2ncnc(Nc3cccc(-c4csc(Cc5ccccc5)n4)c3)c2cc1OCC
9,1000,CCOc1cc2nc(C)nc(Nc3cccc(-c4csc(C)n4)c3)c2cc1OCC
10,8000,CCOc1cc2ncnc(Nc3cccc(-c4csc(N(C)C)n4)c3)c2cc1OCC
11,> 10000,CCOc1cc2ncnc(Nc3cc(-c4csc(C)n4)cc(C(F)(F)F)c3)c2cc1OCC
12,390,CCOc1cc2ncnc(Nc3cccc(-c4ccccn4)c3)c2cc1OCC
13,1800,CCOc1ccc(-c2csc(C)n2)cc1Nc1ncnc2cc(OCC)c(OCC)cc12
14,4400,COc1cc2ncnc(Nc3cccc(-c4csc(C)n4)c3)c2cc1OC
15,> 10000,CCOc1cc2ncnc(Nc3cc(-c4csc(C)n4)c(F)cc3F)c2cc1OCC
16,830,CCOc1cc2ncnc(Nc3cccc(-c4csc(C5CC5)n4)c3)c2cc1OCC
17,3400,CCOc1cc2ncnc(Nc3cccc(-c4csc(C)n4)c3)c2cc1OC
18,6100,CCOc1cc2nc(CN3CCCC3)nc(Nc3cccc(-c4csc(C)n4)c3)c2cc1OCC
19,> 10000,Cc1nc(-c2cccc(Nc3ncnc4ccccc34)c2)cs1
20,2000,CCOc1cc2nc(CN(C)C)nc(Nc3cccc(-c4csc(C)n4)c3)c2cc1OCC
21,480,CCOc1cc2ncnc(Nc3cc(-c4csc(C)n4)ccc3F)c2cc1OCC

row,IC50 [nM],SMILES
1,> 10000,CCOc1cc2ncnc(Nc3cccc(-c4csc(C(=O)O)n4)c3)c2cc1OCC
2,> 10000,COc1cc2c(Nc3cccc(-c4csc(C)n4)c3)ncnc2cc1OCC(C)C
3,1000,CCCOc1cc2ncnc(Nc3cccc(-c4csc(C)n4)c3)c2cc1OCC
4,1000,CCOc1cc2nc(CCCl)nc(Nc3cccc(-c4csc(C)n4)c3)c2cc1OCC
5,3500,CCOc1cc2ncnc(Nc3cccc(-c4csc(N)n4)c3)c2cc1OCC
6,1300,CCC(C)Oc1cc2ncnc(Nc3cccc(-c4csc(C)n4)c3)c2cc1OC (centres undefined)
7,> 10000,CCOc1cc2ncnc(Nc3cccc(C(C)=O)c3)c2cc1OCC
8,> 10000,CCCCOc1cc2c(Nc3cccc(-c4csc(C)n4)c3)ncnc2cc1OC
9,650,CCOc1cc2ncnc(Nc3cccc(-c4nc(C)cs4)c3)c2cc1OCC
10,> 10000,CCCc1nc(-c2cccc(Nc3ncnc4cc(OCC)c(OCC)cc34)c2)cs1
11,> 10000,CCOc1cc2nc(Cc3ccccc3)nc(Nc3cccc(-c4csc(C)n4)c3)c2cc1OCC
12,> 10000,CCOc1cc2ncnc(Nc3cccc(-c4csc(-c5ccccc5)n4)c3)c2cc1OCC
13,420,CCOc1cc2c(Nc3cccc(-c4csc(C)n4)c3)ncnc2cc1OC(C)C
14,500,CCOc1cc2ncnc(Nc3cccc(-c4coc(C)n4)c3)c2cc1OCC
15,5000,CCOc1cc2nc(C(C)C)nc(Nc3cccc(-c4csc(C)n4)c3)c2cc1OCC
16,> 10000,CCOc1cc2ncnc(Nc3cccc(-c4cccc(C)c4)c3)c2cc1OCC
17,2100,CCOc1cc2nc(CS(C)(=O)=O)nc(Nc3cccc(-c4csc(C)n4)c3)c2cc1OCC
18,> 10000,COCCOc1cc2ncnc(Nc3cccc(-c4csc(C)n4)c3)c2cc1OC
19,> 10000,CCOc1cc2ncnc(Nc3cccc(C(=O)CBr)c3)c2cc1OCC
20,> 10000,CCOc1cc2ncnc(Nc3cccc(-c4ccc(C)cc4)c3)c2cc1OCC
21,> 10000,COCCOc1cc2c(Nc3cccc(-c4csc(C)n4)c3)ncnc2cc1OC

row,IC50 [nM],SMILES
1,7300,CCOc1cc2ncnc(Nc3cccc(-c4csc(COC)n4)c3)c2cc1OCC
2,> 10000,COc1cc2c(Nc3cccc(-c4csc(C)n4)c3)ncnc2cc1OC1CCCC1
3,1500,CCOc1cc2nc(CC)nc(Nc3cccc(-c4csc(C)n4)c3)c2cc1OCC
4,> 10000,CCOc1cc2ncnc(Nc3cc(-c4csc(C)n4)ccc3Br)c2cc1OCC
5,250,C#Cc1cc(Nc2ncnc3cc(OC)c(OC)cc23)ccc1F
6,610,CCOc1cc2ncnc(Nc3ccc(F)c(-c4csc(C)n4)c3)c2cc1OCC
7,870,CCOc1cc2nc(CCl)nc(Nc3cccc(-c4csc(C)n4)c3)c2cc1OCC
8,220,CCOc1cc2nc(CCN)nc(Nc3cccc(-c4csc(C)n4)c3)c2cc1OCC
9,800,CCOc1cc2ncnc(Nc3cccc(-c4csc(NC)n4)c3)c2cc1OCC
10,990,CCOc1cc2ncnc(Nc3cc(-c4csc(C)n4)ccc3OC)c2cc1OCC
11,960,CCOc1cc2nc(CC(=O)O)nc(Nc3cccc(-c4csc(C)n4)c3)c2cc1OCC
12,4500,CCOc1cc2ncnc(Nc3cccc(-c4csc(NN)n4)c3)c2cc1OCC
13,6000,CCNCc1nc(Nc2cccc(-c3csc(C)n3)c2)c2cc(OCC)c(OCC)cc2n1
14,640,CCOc1cc2ncnc(Nc3cccc(-c4nc[nH]n4)c3)c2cc1OCC
15,> 10000,CCOc1cc2c(Nc3cccc(-c4csc(C)n4)c3)ncnc2c(OCC)c1OCC
16,1700,CCOc1cc2ncnc(Nc3cc(-c4csc(C)n4)ccc3Cl)c2cc1OCC
17,5300,CCOc1cc2ncnc(Nc3ccc(Cl)c(-c4csc(C)n4)c3)c2cc1OCC
18,> 10000,CCOc1cc2ncnc(Nc3ccc(F)c(-c4csc(C)n4)c3F)c2cc1OCC
19,2100,CCOc1cc2ncnc(Nc3cc(-c4csc(C)n4)ccc3CC)c2cc1OCC
20,> 10000,COc1cc2ncnc(Nc3cccc(-c4csc(C)n4)c3)c2cc1OC(C)C
21,> 10000,Cc1nc(-c2cccc(Nc3ncnc4cc5c(cc34)OCCO5)c2)cs1

row,IC50 [nM],SMILES
1,780,CCOc1cc2ncnc(Nc3cccc(-c4csc(OC)n4)c3)c2cc1OCC
2,5600,CCCOc1cc2ncnc(Nc3cccc(-c4csc(C)n4)c3)c2cc1OC
3,4000,CCOc1cc2ncnc(Nc3cccc(-c4cnc(C)o4)c3)c2cc1OCC
4,1500,CCOc1cc2nc(CN)nc(Nc3cccc(-c4csc(C)n4)c3)c2cc1OCC
5,6100,CCOc1nc(-c2cccc(Nc3ncnc4cc(OCC)c(OCC)cc34)c2)cs1
6,1400,CCOc1cc2ncnc(Nc3cccc(-c4cccnc4)c3)c2cc1OCC
7,1200,CCOc1cc2c(Nc3cccc(-c4csc(C)n4)c3)ncnc2cc1OC
8,> 10000,CCOc1cc2ncnc(Nc3cccc(-c4ccccc4C)c3)c2cc1OCC
9,2600,CCOc1cc2nc(Cl)nc(Nc3cccc(-c4csc(C)n4)c3)c2cc1OCC
10,1800,CCOc1cc2ncnc(Nc3cc(-c4csc(C)n4)ccc3C)c2cc1OCC
11,> 10000,CCOc1cc2nc(CS(C)(=O)=O)nc(Nc3cccc(Br)c3)c2cc1OCC
12,> 10000,CCOc1cc2nc(C(F)(F)F)nc(Nc3cccc(-c4csc(C)n4)c3)c2cc1OCC
13,1200,CCOc1cc2ncnc(Nc3cccc(-c4cncnc4)c3)c2cc1OCC
14,2300,COc1cc2c(Nc3cccc(-c4csc(C)n4)c3)ncnc2cc1OC(C)C
15,1700,CCOc1cc2nc(CC(C)C)nc(Nc3cccc(-c4csc(C)n4)c3)c2cc1OCC
16,> 10000,CCOc1cc2nc(CCl)nc(Nc3cccc(Br)c3)c2cc1OCC
17,> 10000,CCCCOc1cc2ncnc(Nc3cccc(-c4csc(C)n4)c3)c2cc1OC
18,830,CCOc1cc2ncnc(Nc3cccc(-c4nc(C(N)=O)cs4)c3)c2cc1OCC
19,> 10000,Cc1nc(-c2cccc(Nc3ncnc4cc5ccccc5cc34)c2)cs1
20,1400,CCCc1nc(Nc2cccc(-c3csc(C)n3)c2)c2cc(OCC)c(OCC)cc2n1

row,SMILES,IC50 [nM]
1,CCOc1cc2ncnc(Nc3cccc(-c4cscn4)c3)c2cc1OCC,390
2,CCOc1cc2ncnc(Nc3cccc(-c4ccco4)c3)c2cc1OCC,1400
3,CCOc1cc2ncnc(Nc3cccc(-c4cncs4)c3)c2cc1OCC,980
4,CCOc1cc2ncnc(Nc3cccc(-c4nccs4)c3)c2cc1OCC,380
5,CCOc1cc2ncnc(Nc3cccc(-c4cocn4)c3)c2cc1OCC,3600
